Experimental data taken from US20250304545A1, “WATER-SOLUBLE HETEROCYCLYL POLYMETHINE CHROMOPHORES” (The Regents of the University of California, priority 2022, published 2025).
Values belong to the molecule of their own block, whether it stands above or below them.

Columns and labels:
[1] = Photophysical properties of exemplary compounds in DCM solution; type: physicochemical; settings: for λmax (first value of the cell): first of two wavelengths; for λmax (second value of the cell): second of two wavelengths
[2] = reference value; cited from earlier work
[3] = in vivo; cited from earlier work
[4] = Systemic vasculature SWIR imaging with SulfoChrom7, compared with ICG; type: in vivo, mice; settings: for distribution within 30 min: co-injection of SulfoChrom7 and ICG, 10 nmol each i.v.
Protocol: (§1) Animal experiments were conducted in conformity with guidelines from the University of California, Los Angeles with protocols approved by the Animal Research Committee (protocol number ARC-2018-047). Non-invasive whole mouse imaging was performed on athymic nude female mice (5-15 weeks old), purchased from Charles River Laboratories. Mice were anesthetized with inhaled 2-4% isoflurane. Tail vein injections were performed with a catheter assembled from a 29-gauge needle connected through plastic tubing to a syringe prefilled with isotonic saline solution. The bevel of the needle was then inserted into the tail vein and secured using tissue adhesive. The plastic tubing was then connected to a syringe (30-gauge needle) prefilled with the compound of interest. All solutions were filtered through a 0.22 μm syringe filter prior to i.v. injection.
(§2) Imaging instrument was installed according to published procedure, using an Allied Vision Goldeye G-032 Cool TEC2 camera with illumination from LU0975DLU350-S30AN03 (35 W, 975 nm laser) and LU0785D250-U70AN (25 W, 785 nm laser) Lumics laser units to record images at 14-bit depth. Illumination was adjusted to 100 mW/cm^2 for 975 nm and 50 mW/cm^2 for 785 mm. Excitation was provided at 975 nm for Sulfo-, Ammon-, Zwit- and PhosphoChrom7, and at 785 nm for ICG. Fluorescence images were recorded with an 1100 nm long-pass filter unless otherwise noted. Dual-channel imaging (SulfoChrom7/ICG, or fluorescent imaging/bright field imaging) was performed with pulsed excitation that matches the detection window of the camera, or persistent ambient fluorescent lighting for bright field images to be subtracted as background in the fluorescence channel.
Images were processed using the Fiji distribution of ImageJ. All images were background subtracted to correct for non-linearities in the detector and/or excitation. […] Videos were saved as raw avi and cropped, frame-rate adjusted and compressed with FFmpeg. For dual-channel imaging, emission of the SulfoChrom7 and AmmonChrom7 in 785 nm channel was estimated to be 9.0% intensity of their 975 nm image as derived from the capillary experiment, and subtracted from the 785 nm channel.

SK-OV-3 tumors = assay: Fluorescence tracking of growth of SK-OV-3 tumor xenografts; type: in vivo, mice; settings: 39 days after xenograft, 4 h after i.v. OTL-38
Protocol: A375 or SK-OV-3 cells were grown to confluency and incubated with full media supplemented with 50 μM of AmmonChrom7 for 12 h. Cells were then incubated with full media for 6 h, followed by digestion with trypsin-EDTA. The cell pellet was further washed with PBS (×3). For A375 cells, stained or unstained cells were suspended in 1:1 PBS and Matrigel; 100 μL of cell suspension (3.3 million cells) were injected to each site. Tumor 2D-projected sizes A were monitored by caliper measurement of long diameter a and short diameter b of the tumors and estimated by the following equation:
For SK-OV-3 cells, cells were suspended in 1:1 PBS and Matrigel; 100 μL of cell suspension (2.5 million cells) was injected to each site. […]
as §2, with “Illumination was adjusted to 100 mW/cm^2 for 975 nm and 50 mW/cm^2 for 785 mm. Excitation was provided at 975 nm for Sulfo-, Ammon-, Zwit- and PhosphoChrom7, and at 785 nm for ICG.” left out

[5] = Hydroxyapatite binding assay; settings: 50 μM dye in bovine serum, sequential washes
Protocol: Hydroxyapatite powder was purchased from Acros Organics. To a suspension of 10 mg of hydroxyapatite in 100 μL of bovine serum was added 50 μM PhosphoChrom7 and the mixture was placed on a revolver for 30 min for initial binding, followed by centrifugation to remove supernatant. For washing, the pellet was resuspended in 100 μL of bovine serum by vortexing and placed on a revolver for 30 min followed by centrifugation to remove supernatant. The pellet was finally resuspended in 100 μL of bovine serum for imaging under the SWIR camera. For quantification, each centrifuge tube containing the suspension was recorded at the center of the illumination/viewing field to calculate mean fluorescence intensity at the bottom area of the tube.

HEK293 cells [6] = assay: MTT toxicity assay; type: cell-based; settings: low concentrations
Protocol: HEK293 cells were split into three cultures as replicates. For each replicate, HEK293 cells were passed onto flat-bottomed 96-well plate to 40-50% confluency and left 6 h for adhesion. Different concentrations of compounds were added to the medium (1:40 dilution from aqueous stock solution) in quadruplicate and incubated for 18 h. After incubation, cells were treated with 100 μL of full media containing 0.5 mg/mL MTT for 2 h, followed by addition of 100 μL of aqueous solution containing 10% SDS and 1:1000 HCl. After 3-4 h incubation, cell viability was determined by measuring the absorbance at 490 nm using a plate reader.

[7] = Bone imaging in mice with PhosphoChrom7; type: in vivo
Protocol: as §1, §2
Images were processed using the Fiji distribution of ImageJ. All images were background subtracted to correct for non-linearities in the detector and/or excitation. […] Videos were saved as raw avi and cropped, frame-rate adjusted and compressed with FFmpeg. […]

[8] = Aggregation / monomeric dispersion by absorption spectra in water, MeOH/H2O and serum; type: physicochemical; settings: for aggregation state: in water
Text: (§3) Absorption spectra were collected on a JASCO V-770 UV-visible/NIR spectrophotometer after blanking with the appropriate solvent. Photoluminescence spectra were obtained on a Horiba Instruments PTI QuantaMaster Series fluorometer. Fetal bovine serum (FBS) or bovine serum were purchased from Gibco. Quartz cuvettes (10 mm×10 mm) were used for absorption and photoluminescence measurements unless otherwise noted. All spectra were obtained at ambient temperature. Fluorescence quantum yield was measured with 830 nm excitation using Flav7 as a reference (ΦF=0.61%).

[9] = Photophysical characterization of Chrom7 dyes (absorption, emission, quantum yield); type: physicochemical
Text: as §3

Stability assay in FBS = type: in vitro ADME; settings: over 2 days at 37° C. in FBS, 1 μM dye
Protocol: Dyes were diluted to 1 μM in 1 mL of FBS containing 0.02% w/v NaN3 and placed in disposable cuvettes. The cuvettes were sealed with parafilm and placed in 37° C. incubator until given time points. Absorption spectra were taken using the maximum absorption to represent the dye concentration. Each condition was performed in triplicate.

[10] = Brightness comparison by SWIR imaging of dyes in FBS in capillaries; type: physicochemical
Protocol: as §2

[11] = Biodistribution of water soluble SWIR fluorophores after i.v. injection; type: in vivo, mice; settings: 20 nmol into tail vein
Protocol: as §1, with “The plastic tubing was then connected to a syringe (30-gauge needle) prefilled with the compound of interest. All solutions were filtered through a 0.22 μm syringe filter prior to i.v. injection.” left out
as §2, with “Illumination was adjusted to 100 mW/cm^2 for 975 nm and 50 mW/cm^2 for 785 mm. Excitation was provided at 975 nm for Sulfo-, Ammon-, Zwit- and PhosphoChrom7, and at 785 nm for ICG.” left out, “channel. […]” for “channel.”

HEK293 cells [12] = assay: Uptake and retention of dyes in cells (absorbance of cell lysates); type: cell-based; settings: 50 μM dye
Protocol: HEK293, SK-OV-3 or A375 cells were split into three cultures as replicates. For each replicate, cells were passed onto 12-well or 24-well plates and grown until ca. 80% confluency. Each well was incubated with 50 μM of AmmonChrom7 for 6 h, and the cells were washed with PBS and incubated in MEM medium supplemented with 1% FBS. At given time points, the cell media were removed and cells were lysed with lysis buffer (150 μL, containing 1% Triton X-100, 0.1% w/v SDS and 0.1% w/v sodium deoxycholate) and diluted with bovine serum (300 μL). The cell lysate was collected and frozen at −20° C. until analysis. To quantify dye content, maximum absorption was used to represent the dye concentration. Scattering was estimated and subtracted with absorption at 1050-1100 nm, using the following equation for fitting: […]

- ϕF [1]: 0.11 ± 0.01%
- λmax (first value of the cell) [1]: 1079 nm
- λmax (second value of the cell) [1]: 1107 nm
Structure (SMILES): Cc1cc(C)cc(C2=C(/C=C/C3=CC(c4ccccc4)=[SH]c4cc(N(C)C)ccc43)CCC/C2=C\C=C2/C=C(c3ccccc3)Sc3cc(N(C)C)ccc32)c1 [DiMePh SFlav7]

- ϕF [1]: 0.11 ± 0.02%
- λmax (first value of the cell) [1]: 1079 nm
- λmax (second value of the cell) [1]: 1107 nm
Structure (SMILES): CN(C)c1ccc2c(c1)SC(c1ccccc1)=C/C2=C\C=C1/CCCC(/C=C/c2cc(-c3ccccc3)[s+]c3cc(N(C)C)ccc23)=C1c1cc(C(C)(C)C)cc(C(C)(C)C)c1 [DitBuPh SFlav7]

Structure (SMILES): CN(C)c1ccc2c(c1)OC(c1ccccc1)=C/C2=C\C=C1/CCCC(/C=C/c2cc(-c3ccccc3)[o+]c3cc(N(C)C)ccc23)=C1Cl [Flav7]
- ΦF of the reference for fluorescence quantum yield [2]: 0.61%

Structure (SMILES): CC1(C)C(/C=C/C=C/C=C/C=C2\N(CCCCS(=O)(=O)O)c3ccc4ccccc4c3C2(C)C)=[N+](CCCCS(=O)(=O)[O-])c2ccc3ccccc3c21 [ICG, indocyanine green, reference compound]
- time of hepatobiliary clearance [3]: ≤ 6 h
- distribution within 30 min [4]: most ICG accumulated in the liver with secretion into the intestine, leaving negligible signal in the mouse body

Structure (SMILES): CC1(C)C(/C=C/C2=C(Oc3ccc(C[C@H](NC(=O)c4ccc(NCc5cnc6nc(N)[nH]c(=O)c6n5)cc4)C(=O)[O-])cc3)C(=C/C=C3\N(CCCCS(=O)(=O)[O-])c4ccc(S(=O)(=O)[O-])cc4C3(C)C)/CCC2)=[N+](CCCCS(=O)(=O)[O-])c2ccc(S(=O)(=O)[O-])cc21.[H+].[H+].[H+].[H+] [OTL-38]
- specificity of tumor staining ex vivo (SK-OV-3 tumors): much non-specific accumulation

- binding towards hydroxyapatite [5]: strong binding affinity
- organ distribution on dissection ([7]; 54 h after i.v. injection): the liver is the major target of the dye
- clearance ([7]; compared to previous hydrophilic dyes): slightly faster clearance
- aggregation peak ([8]; in FBS): 760 nm
Structure (SMILES): Cc1ccccc1C1=C(C=Cc2cc(C(C)(C)C)[o+]c3cc(N(Cc4cn(CCCP(=O)(O)O)nn4)Cc4cn(CCCP(=O)(O)O)nn4)ccc23)CCCC1=CC=C1C=C(C(C)(C)C)Oc2cc(N(Cc3cn(CCCP(=O)(O)O)nn3)Cc3cn(CCCP(=O)(O)O)nn3)ccc21 [PhosphoChrom7]
- toxicity (HEK293 cells [6]): mild
- time at which bone structures begin to feature ([7]; after i.v. injection): 8 h
- solubility ([8]; in FBS): lower than the Sulfo-, Ammon-, or ZwitChrom7

- εmax ([9]; in MeOH): 14 ± 1 10^4 M^−1cm^−1
- λmax ([9]; in MeOH): 928 nm
Structure (SMILES): C#CCN(CC#C)c1ccc2c(c1)OC(C(C)(C)C)=C/C2=C\C=C1/CCCC(/C=C/c2cc(C(C)(C)C)[o+]c3cc(N(CC#C)CC#C)ccc23)=C1c1ccccc1C [Propargyl-Chrom7]

- fraction of dye left (Stability assay in FBS): around ½
- emission in 785 nm channel as intensity of the 975 nm image ([10]; derived from the capillary experiment): 9.0%
- SWIR brightness compared with ICG / among the dyes ([10]; in FBS, 975 nm excitation (ICG 785 nm)): brightest of the fluorophores
- εmax ([9]; in FBS): 9.5 10^4 M^−1cm^−1
- λmax ([9]; in FBS): 963 nm
- φF ([9]; in FBS): 0.0056 ± 0.0003
- εmax ([9]; in MeOH): 16.5 ± 0.2 10^4 M^−1cm^−1
- λmax ([9]; in MeOH): 938 nm
- φF ([9]; in MeOH): 0.0106 ± 0.0002
- aggregation state [8]: discernible monomer absorption
Structure (SMILES): Cc1ccccc1C1=C(C=Cc2cc(C(C)(C)C)[o+]c3cc(N(Cc4cn(CCCS(=O)(=O)[O-])nn4)Cc4cn(CCCS(=O)(=O)[O-])nn4)ccc23)CCCC1=CC=C1C=C(C(C)(C)C)Oc2cc(N(Cc3cn(CCCS(=O)(=O)[O-])nn3)Cc3cn(CCCS(=O)(=O)[O-])nn3)ccc21.[Na+].[Na+].[Na+] [SulfoChrom7]
- brightness ratio over ICG in veins, maximum over time ([4]; co-injection 10 nmol each, 1300 nm LP filter): 7-8 fold
- distribution within 30 min [4]: still reflected the superficial vasculature map while also displaying liver accumulation
- amount of dye that enables video-rate imaging of liver and vasculature ([4]; tail vein, 33 fps, 1100 nm LP filter): 0.05 nmol
- distribution after 3 h [11]: diffuse signal through the mouse body, but still with substantial liver accumulation
- cellular uptake (absorbance of cell lysates) (HEK293 cells [12]): minimal

- fraction of dye left (Stability assay in FBS): 1/10
- quantum yield ([9]; in FBS): 0.32%
- εmax ([9]; in FBS): 11.5 10^4 M^−1cm^−1
- λmax ([9]; in FBS): 960 nm
- φF ([9]; in FBS): 0.0032 ± 0.0003
- εmax ([9]; in MeOH): 16.4 ± 0.4 10^4 M^−1cm^−1
- λmax ([9]; in MeOH): 940 nm
- φF ([9]; in MeOH): 0.0101 ± 0.0004
- aggregation state [8]: primarily aggregated
Structure (SMILES): Cc1ccccc1C1=C(C=Cc2cc(C(C)(C)C)[o+]c3cc(N(Cc4cn(CCC[N+](C)(C)CCCS(=O)(=O)[O-])nn4)Cc4cn(CCC[N+](C)(C)CCCS(=O)(=O)[O-])nn4)ccc23)CCCC1=CC=C1C=C(C(C)(C)C)Oc2cc(N(Cc3cn(CCC[N+](C)(C)CCCS(=O)(=O)[O-])nn3)Cc3cn(CCC[N+](C)(C)CCCS(=O)(=O)[O-])nn3)ccc21.[Cl-] [ZwitChrom7]
- distribution after 3 h [11]: diffuse signal through the mouse body, but still with substantial liver accumulation
- cellular uptake (absorbance of cell lysates) (HEK293 cells [12]): minimal
